In patent US12466829B2, “Spirocyclic piperidine melanocortin subtype-2 receptor (MC2R) antagonists and uses thereof” (Crinetics Pharmaceuticals, Inc., priority 2019, dated 2025):

Target: T1, hMC2 receptor (Homo sapiens, UniProt Q01718)
T1 construct: host or cells: CRE-bla-CHO-K1 cells
Assay: hMC2 membrane binding assay ([125I]ACTH (1-39) Tyr23, SPA)
Settings: crude membranes of CRE-bla-CHO-K1 cells expressing hMC2 receptor and hMRAP; 0.2 nM [125I]ACTH (1-39) Tyr23; 1.5 hours at room temperature; read-out: MC2R binding potency
Description: Crude membrane fractions are prepared from CRE-bla-CHO-K1 cells stably expressing hMC2 receptor and hMRAP accessory protein (Thermo Fisher). The cells are grown to 85-100% confluence on standard tissue culture dishes in GlutaMax DMEM growth media (Gibco) with following additives: 10% dialyzed FBS (Gemini), 0.1 mM NEAA (Gibco), 25 mM HEPES (Gibco), 5 μg/mL blasticidin (Goldbio), 100 μg/mL zeocin (Invitrogen), 600 μg/mL hygromycin (Goldbio). To prepare membranes, cells are scraped and collected in 1× Dulbecco's phosphate buffered saline (Corning) and then pelleted at 1000 RPM's. The cell pellet is reconstituted in membrane preparation buffer (20 mM HEPES, 6 mM MgCl2 and 1 mM EGTA, protease inhibitor tablets (Pierce) adjusted to pH 7.4), homogenized using a dounce homogenizer, and the resulting membrane fraction is pelleted by centrifugation at 12,000 RPM's. The membrane pellet is resuspended in membrane preparation buffer, snap freezed and stored at −80° C. for later use.
The hMC2 membrane binding assay utilizes the following components: radiolabel [^125I]ACTH (1-39) Tyr23 (PerkinElmer), wheatgerm agglutinin coated PVT SPA beads (PerkinElmer), crude hMC2R membranes, and compounds. Briefly hMC2R membranes are incubated with SPA beads in binding assay buffer (50 mM HEPES, 5 mM MgCl2, 1 mM CaCl2), 0.2% BSA, protease inhibitor tablets (Pierce) adjusted to pH7.4) prior to assay initiation. […] Assay plates are read using a Top Count NXT and Ki values for compounds are determined using a GraphPad Prism 6 non-linear regression analysis.

T1 sequence (Q01718 whole entry): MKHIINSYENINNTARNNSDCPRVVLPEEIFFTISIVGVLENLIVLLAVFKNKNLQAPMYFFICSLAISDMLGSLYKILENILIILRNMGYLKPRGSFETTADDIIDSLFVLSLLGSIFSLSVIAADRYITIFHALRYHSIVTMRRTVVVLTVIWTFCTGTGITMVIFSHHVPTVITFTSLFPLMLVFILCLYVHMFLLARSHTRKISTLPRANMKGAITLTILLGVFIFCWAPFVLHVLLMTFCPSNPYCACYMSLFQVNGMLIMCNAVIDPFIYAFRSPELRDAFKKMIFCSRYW
T1 sequence (Q8TCY5 whole entry partner): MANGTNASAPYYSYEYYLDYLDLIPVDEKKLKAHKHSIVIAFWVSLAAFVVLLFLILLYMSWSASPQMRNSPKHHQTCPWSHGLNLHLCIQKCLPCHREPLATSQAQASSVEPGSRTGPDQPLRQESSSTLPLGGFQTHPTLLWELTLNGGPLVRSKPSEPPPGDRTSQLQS

Compound | Ki [nM]
2-[1′-(3-aminopropyl)-7′-(2-ethoxypyridin-3-yl)-2′-oxo-2′,3′-dihydro-1′H-spiro[piperidine-4,4′-quinolin]-1-yl]-5-(trifluoromethyl)benzonitrile [1-67] | 10 to 100
CCOc1ccccc1-c1ccc2c(c1)N(C(=O)CN)CC21CCN(c2ccc(C(F)(F)F)cc2C#N)CC1 [1-2, 2-[1-(2-aminoacetyl)-6-(2-ethoxyphenyl)-1,2-dihydrospiro[indole-3,4′-piperidin]-1′-yl]-5-(trifluoromethyl)benzonitrile] | 10 to 100
CCOc1ncccc1-c1ccc2c(c1)N(C(=O)CCN)CC21CCN(c2cc(C#N)cc(C(F)(F)F)c2)CC1 [1-8, 3-[1-(3-aminopropanoyl)-6-(2-ethoxypyridin-3-yl)-1,2-dihydrospiro[indole-3,4′-piperidin]-1′-yl]-5-(trifluoromethyl)benzonitrile] | 1000 to 10000
CCOc1ncccc1-c1ccc2c(c1)N([C@H]1CCNC1)C(=O)C21CCN(c2ccc(C(F)(F)F)cc2C#N)CC1 [1-17, 2-[6-(2-ethoxypyridin-3-yl)-2-oxo-1-[(3S)-pyrrolidin-3-yl]-1,2-dihydrospiro[indole-3,4′-piperidin]-1′-yl]-5-(trifluoromethyl)benzonitrile] | 10 to 100
CCOc1ncccc1-c1ccc2c(c1)N([C@@H]1CCNC1)C(=O)C21CCN(c2ccc(C(F)(F)F)cc2C#N)CC1 [1-18, 2-[6-(2-ethoxypyridin-3-yl)-2-oxo-1-[(3R)-pyrrolidin-3-yl]-1,2-dihydrospiro[indole-3,4′-piperidin]-1′-yl]-5-(trifluoromethyl)benzonitrile] | < 10
CCOc1ncccc1-c1ccc2c(c1)N(C(=O)CCN)CC21CCN(c2cc(C#N)cc(C(F)(F)F)n2)CC1 [1-19, 2-[1-(3-aminopropanoyl)-6-(2-ethoxypyridin-3-yl)-1,2-dihydrospiro[indole-3,4′-piperidin]-1′-yl]-6-(trifluoromethyl)pyridine-4-carbonitrile] | 1000 to 10000
CCOc1ncccc1-c1ccc2c(c1)N(C(=O)CCN)CC21CCN(c2ccc(F)c(C(F)(F)F)n2)CC1 [1-20, 3-amino-1-[6-(2-ethoxypyridin-3-yl)-1′-[5-fluoro-6-(trifluoromethyl)pyridin-2-yl]-1,2-dihydrospiro[indole-3,4′-piperidin]-1-yl]propan-1-one] | 1000 to 10000
CCOc1ncccc1-c1ccc2c(c1)N([C@@H]1CCN(C)C1)C(=O)C21CCN(c2ccc(C(F)(F)F)cc2C#N)CC1 [1-21, 2-[6-(2-ethoxypyridin-3-yl)-1-[(3R)-1-methylpyrrolidin-3-yl]-2-oxo-1,2-dihydrospiro[indole-3,4′-piperidin]-1′-yl]-5-(trifluoromethyl)benzonitrile] | 10 to 100
CCOc1ncccc1-c1ccc2c(c1)N(C(=O)CCN)CC21CCN(c2ccc(Cl)cc2C(F)(F)F)CC1 [1-22, 3-amino-1-{1′-[4-chloro-2-(trifluoromethyl)phenyl]-6-(2-ethoxypyridin-3-yl)-1,2-dihydrospiro[indole-3,4′-piperidin]-1-yl}propan-1-one] | 10 to 100
CCOc1ccc(N2CCC3(CC2)CN(C(=O)CCN)c2cc(-c4cccnc4OCC)ccc23)c(C(F)(F)F)n1 [1-23, 3-amino-1-{1′-[6-ethoxy-2-(trifluoromethyl)pyridin-3-yl]-6-(2-ethoxypyridin-3-yl)-1,2-dihydrospiro[indole-3,4′-piperidin]-1-yl}propan-1-one] | 10 to 100
CCOc1ncccc1-c1ccc2c(c1)N(C(=O)CCN)CC21CCN(c2cc(C(F)(F)F)cc(C#N)n2)CC1 [1-24, 6-[1-(3-aminopropanoyl)-6-(2-ethoxypyridin-3-yl)-1,2-dihydrospiro[indole-3,4′-piperidin]-1′-yl]-4-(trifluoromethyl)pyridine-2-carbonitrile] | 1000 to 10000
CCOc1ccc(N2CCC3(CC2)CN(C(=O)CCN)c2cc(-c4cccnc4OCC)ccc23)nc1C(F)(F)F [1-25, 3-amino-1-{1′-[5-ethoxy-6-(trifluoromethyl)pyridin-2-yl]-6-(2-ethoxypyridin-3-yl)-1,2-dihydrospiro[indole-3,4′-piperidin]-1-yl}propan-1-one] | 1000 to 10000
CCOc1ncccc1-c1ccc2c(c1)N(C(=O)CCN)C(C)C21CCN(c2ccc(C(F)(F)F)cc2C#N)CC1 (centres unmarked) [1-26, 2-[1-(3-aminopropanoyl)-6-(2-ethoxypyridin-3-yl)-2-methyl-1,2-dihydrospiro[indole-3,4′-piperidin]-1′-yl]-5-(trifluoromethyl)benzonitrile] | 10 to 100

More lines, now with the values ahead:

Ki [nM] | Compound
10 to 100 | CCOc1ncccc1-c1ccc2c(c1)N(C(=O)CN)CC21CCN(c2ccc(C(F)(F)F)cc2C#N)CC1 [1-1, 2-[1-(2-aminoacetyl)-6-(2-ethoxypyridin-3-yl)-1,2-dihydrospiro[indole-3,4′-piperidin]-1′-yl]-5-(trifluoromethyl)benzonitrile]
10 to 100 | CCOc1ncccc1-c1ccc2c(c1)N(C(=O)CCN)CC21CCN(c2ccc(C(F)(F)F)cc2C#N)CC1 [1-3, 2-[1-(3-aminopropanoyl)-6-(2-ethoxypyridin-3-yl)-1,2-dihydrospiro[indole-3,4′-piperidin]-1′-yl]-5-(trifluoromethyl)benzonitrile]
10 to 100 | CCOc1ncccc1-c1ccc2c(c1)N(C(=O)C[C@H](C)N)CC21CCN(c2ccc(C(F)(F)F)cc2C#N)CC1 [1-5, 2-{1-[(3 S)-3-aminobutanoyl]-6-(2-ethoxypyridin-3-yl)-1,2-dihydrospiro[indole-3,4′-piperidin]-1′-yl}-5-(trifluoromethyl)benzonitrile]
10 to 100 | CCOc1ncccc1-c1ccc2c(c1)N(C(=O)C[C@@H](C)N)CC21CCN(c2ccc(C(F)(F)F)cc2C#N)CC1 [1-6, 2-{1-[(3R)-3-aminobutanoyl]-6-(2-ethoxypyridin-3-yl)-1,2-dihydrospiro[indole-3,4′-piperidin]-1′-yl}-5-(trifluoromethyl)benzonitrile]
10 to 100 | CCOc1ncccc1-c1ccc2c(c1)N(C(=O)CCN)CC21CCN(c2ccc(C(F)(F)F)cc2Cl)CC1 [1-7, 3-amino-1-{1′-[2-chloro-4-(trifluoromethyl)phenyl]-6-(2-ethoxypyridin-3-yl)-1,2-dihydrospiro[indole-3,4′-piperidin]-1-yl}propan-1-one]
10 to 100 | CCOc1ncccc1-c1ccc2c(c1)N(C(=O)[C@@H]1CCNC1)CC21CCN(c2ccc(C(F)(F)F)cc2C#N)CC1 [1-9, 2-[6-(2-ethoxypyridin-3-yl)-1-[(3R)-pyrrolidine-3-carbonyl]-1,2-dihydrospiro[indole-3,4′-piperidin]-1′-yl]-5-(trifluoromethyl)benzonitrile]
10 to 100 | CCOc1ncccc1-c1ccc2c(c1)N(C(=O)[C@H]1CCNC1)CC21CCN(c2ccc(C(F)(F)F)cc2C#N)CC1 [1-10, 2-[6-(2-ethoxypyridin-3-yl)-1-[(3S)-pyrrolidine-3-carbonyl]-1,2-dihydrospiro[indole-3,4′-piperidin]-1′-yl]-5-(trifluoromethyl)benzonitrile]
10 to 100 | CCOc1ncccc1-c1ccc2c(c1)N(C(=O)CCCN)CC21CCN(c2ccc(C(F)(F)F)cc2C#N)CC1 [1-11, 2-[1-(4-aminobutanoyl)-6-(2-ethoxypyridin-3-yl)-1,2-dihydrospiro[indole-3,4′-piperidin]-1′-yl]-5-(trifluoromethyl)benzonitrile]
10 to 100 | CCOc1ncccc1-c1ccc2c(c1)N(CCN)CC21CCN(c2ccc(C(F)(F)F)cc2C#N)CC1 [1-12, 2-[1-(2-aminoethyl)-6-(2-ethoxypyridin-3-yl)-1,2-dihydrospiro[indole-3,4′-piperidin]-1′-yl]-5-(trifluoromethyl)benzonitrile]
< 10 | CCOc1ncccc1-c1ccc2c(c1)N(C[C@@H](C)N)CC21CCN(c2ccc(C(F)(F)F)cc2C#N)CC1 [1-13, 2-{1-[(2R)-2-aminopropyl]-6-(2-ethoxypyridin-3-yl)-1,2-dihydrospiro[indole-3,4′-piperidin]-1′-yl}-5-(trifluoromethyl)benzonitrile]
10 to 100 | CCOc1ncccc1-c1ccc2c(c1)N(C[C@H](C)N)CC21CCN(c2ccc(C(F)(F)F)cc2C#N)CC1 [1-14, 2-{1-[(2S)-2-aminopropyl]-6-(2-ethoxypyridin-3-yl)-1,2-dihydrospiro[indole-3,4′-piperidin]-1′-yl}-5-(trifluoromethyl)benzonitrile]
< 10 | CCOc1ncccc1-c1ccc2c(c1)N(CCN)C(=O)C21CCN(c2ccc(C(F)(F)F)cc2C#N)CC1 [1-16, 2-[1-(2-aminoethyl)-6-(2-ethoxypyridin-3-yl)-2-oxo-1,2-dihydrospiro[indole-3,4′-piperidin]-1′-yl]-5-(trifluoromethyl)benzonitrile]
10 to 100 | CCOc1ncccc1-c1ccc2c(c1)N(C(=O)NCCN)CC21CCN(c2ccc(C(F)(F)F)cc2C#N)CC1 [1-27, N-(2-aminoethyl)-1′-[2-cyano-4-(trifluoromethyl)phenyl]-6-(2-ethoxypyridin-3-yl)-1,2-dihydrospiro[indole-3,4′-piperidine]-1-carboxamide]
